# Data from patent US20050084509A1, “Use of citric acid and low concentrations of alpha-hydroxy acids for superficial skin treatment” (priority 2003, published 2005).
# Columns and labels:
# [1] = system: skin; assay: low concentration citric acid peel self-administered in the home; format: in vivo, human
# [2] = system: signs of photoaging; assay: citric acid versus glycolic acid at equal concentration and same pH; format: in vivo, human
# [3] = system: ichthyosis; conditions: in vivo; cited from earlier work
# [4] = system: photodamaged skin; assay: citric acid peels on photodamaged skin (office peel study); conditions: 50 percent citric acid solution
# [5] = two months after last treatment
smiles,measurement,setting,value
O=C(O)CC(O)(CC(=O)O)C(=O)O [citric acid],"subjective assessment of fine lines, wrinkles, enlarged pores, and brown spots","[1]; 10 percent citric acid solution, three treatments at two-week intervals, two months after third treatment",statistically significant improvement
same,skin tolerance without neutralization,[1]; ten percent citric acid,may be left on most people's skin without neutralization
same,reducing the signs of photoaging versus glycolic acid,[2]; equal concentration of glycolic acid at the same pH,more effective
same,side effects versus glycolic acid,[2]; glycolic acid of the same concentration,side effects are less
same,efficacy in treating ichthyosis,[3],highly effective
same,"fine lines and wrinkles, photographs evaluated by blinded observers","[4]; 2-5 min, neutralized, peels at one month intervals, evaluated two months after last treatment",statistically significant improvement
same,redness immediately following a peel,[4]; immediately after peel,increase in redness
same,"fine lines, wrinkles by Primos topographic image analysis",[4]; [5],"improvement in fine lines, wrinkles"
same,pore size by Primos topographic image analysis,[4]; [5],reduction in pore size
same,redness by cross-polarized photography,[4]; [5],no dramatic change in redness
